From US20050282888A1, “Fungicidal composition” (Sumitomo Chemical Company, Limited, priority 2004, published 2005)

System: Plasmopara viticola
Test: Test Example 1: spray test on grape seedlings inoculated with Plasmopara viticola (protective value)
Format: in vivo, Plasmopara viticola on grape (variety: Berry A)
Settings: single active ingredient, wettable powder sprayed on grape seedlings before inoculation, assessed after one night plus 7 days; for pest or weed control at 50 ppm: Plasmopara viticola, 168 h, read-out: Actual protective value; for Actual protective value: 50 ppm
Procedure: Next, it is shown that the present invention compositions have an excellent controlling activity against plant diseases as test example. Generally, an expected controlling value, when two active ingredient compounds are mixed and applied, can be calculated by the Colby's formula described below. E=X+Y−(X×Y)/100 • X: protective value (%) when treatment is carried out by using an active ingredient compound A at the concentration of m ppm. • Y: protective value (%) when treatment is carried out by using an active ingredient compound B at the concentration of n ppm • E: protective value (%) when treatment is carried out by using the active ingredient compound A at the concentration of m ppm and the active ingredient compound B at the concentration of n ppm (hereinafter referred to as “expected protective value”) And, generally speaking, if actual protective value (%) when treatment is carried out by actually mixing two kinds of active ingredient compounds is not less than the expected protective value (%), it can be said that there is a mixing effect.
Sandy loam soil was compacted in a plastic pot, and a grape (variety: Berry A) was seeded and grown in a green house for 40 days. The test drug formulated to wettable powder according to Formulation Example 5, then, diluted with water to provide prescribed concentration, and these diluted solutions were sprayed onto stems and leaves so as to give sufficient adhesion on the surface of grape leaves. After that, a suspension of zoosporangia of Plasmopara viticola was inoculated by spraying to stems and leaves of the grape seedling. After inoculation, the grape seedling was first grown for one night at 23° C. under humid, then further grown for 7 days in the green house. Then, the ratio of diseased area (%) of Plasmopara viticola on stems and leaves of the grape seedling was investigated and the actual protective value was obtained according to the formula described below form the investigated result. protective value (%)={[the ratio of diseased area of non treated plant (%)−the ratio of diseased area of treated plant (%)/]/[the ratio of diseased area of non treated plant (%)]}×100

SMILES	pest or weed control at 50 ppm	Actual protective value
C#CCOc1ccc(CCC(=O)NCc2ccc(Cl)c(Cl)c2)cc1OC [(I-11), N-(3,4-dichlorobenzyl)-3-{3-methoxy-4-(2-propynyloxy)phenyl}propanamide]	100%	
CCOc1ccc(CCC(=O)NC(C#N)c2ccc(Br)cc2)cc1OC (stereo not drawn) [(I-21)]		100%
C#CCOc1ccc(CCC(=O)NC(C#N)c2ccc3c(c2)CCCC3)cc1OC (stereo not drawn) [(I-27), N-{1-(5,6,7,8-tetrahydronaphthalene-2-yl)-1-cyanomethyl}-3-(3-methoxy-4-(2-propyonyloxy)phenyl)propanamide]		100%
C#CCOc1ccc(CCC(=S)NCc2ccc(C)cc2)cc1OC [(I-3), N-(4-methylbenzyl)-3-(3-methoxy-4-(2-propynyloxy)phenyl}pro panthioamide]	100%	
C#CCOc1ccc(CCC(=O)NC(C#N)c2ccccc2)cc1OC (stereo not drawn) [(I-5), N-(1-phenyl-1-cyanomethyl)-3-{3-methoxy-4-(2-propynyloxy)phenyl}propanamide]	100%	
CCOc1ccc(CCC(=O)NC(C#N)c2ccc(C)cc2)cc1OC (stereo not drawn) [(I-7), N-{1-(4-methylphenyl)-1-cyanomethyl}-3-(3-methoxy-4-ethoxyphenyl)propanamide]	100%	
C#CCOc1ccc(CCC(=O)NC(C#N)c2ccc3c(c2)CCC3)cc1OC (stereo not drawn) [(I-24), N-{1-(indan-5-yl)-1-cyanomethyl}-3-{3-methoxy-4-(2-propynyloxy)phenyl}propanamide]	100%	
C#CCOc1ccc(CCC(=O)NC(C#N)c2ccc(C)cc2)cc1OC (stereo not drawn) [(I-6), N-{1-(4-methylphenyl)-1-cyanomethyl)-3-(3-methoxy-4-(2-propynyloxy)phenyl}propanamide]	100%	
C#CCOc1ccc(CCC(=S)NCc2ccc(Cl)c(Cl)c2)cc1OC [(I-14), N-(3,4-dichlorobenzyl)-3-{3-methoxy-4-(2-propynyloxy)phenyl}propanthioamide]	100%	
C#CCOc1ccc(CCC(=O)NCc2ccc3c(c2)CCC3)cc1OC [(I-22), N-{(indan-5-yl)methyl}-3-{3-methoxy-4-(2-propynyloxy)phenyl}propanamide]	100%	
C#CCOc1ccc(CCC(=O)NC(C#N)c2ccc(Cl)cc2)cc1OC (stereo not drawn) [(I-16), N-{1-(4-chlorophenyl)-1-cyanomethyl}-3-{3-methoxy-4-(2-propynyloxy)phenyl}propanamide]	100%	
C#CCOc1ccc(CCC(=S)NCc2ccc3c(c2)CCC3)cc1OC [(I-23), N-(indan-5-ylmethyl)-3-(3-methoxy-4-(2-propynyloxy)phenyl)p ropanthioamide]	100%	
C#CCOc1ccc(CCC(=O)NCc2ccc3c(c2)CCCC3)cc1OC [(I-25), N-((5,6,7,8-tetrahydronaphthalene-2-yl)methyl)-3-(3-methoxy-4-(2-propynyloxy)phenyl)propanamide]	100%	
C#CCOc1ccc(CCC(=O)NCc2ccc3ccccc3c2)cc1OC [(I-28), N-{(naphthalene-2-yl)methyl}-3-{3-methoxy-4-(2-propynyloxy)phenyl}propanamide]	100%	
C#CCOc1ccc(CCC(=S)NCc2ccc(C)c(C)c2)cc1OC [(I-4), N-(3,4-dimethylbenzyl)-3-{3-methoxy-4-(2-propynyloxy)phenyl}propanthioamide]	100%	
C#CCOc1ccc(CCC(=S)NCc2ccc(Br)cc2)cc1OC [(I-19), N-(4-bromobenzyl)-3-{3-methoxy-4-(2-propynyloxy)phenyl)prop anthioamide]	100%	
C#CCOc1ccc(CCC(=S)NCc2ccc(Cl)cc2)cc1OC [(I-13), N-(4-chlorobenzyl)-3-(3-methoxy-4-(2-propynyloxy)phenyl}pro panthioamide]	100%	
C#CCOc1ccc(CCC(=O)NCc2ccc(Br)cc2)cc1OC [(I-18)]		100%
C#CCOc1ccc(CCC(=O)NC(C#N)c2ccc(CC)cc2)cc1OC (stereo not drawn) [(I-9), N-{1-(4-ethylphenyl)-1-cyanomethyl)-3-(3-methoxy-4-(2-propynyloxy)phenyl)propanamide]	100%	
C#CCOc1ccc(CCC(=S)NCc2ccc3ccccc3c2)cc1OC [(I-29), N-{(naphthalene-2-yl)methyl}-3-{3-methoxy-4-(2-propynyloxy)phenyl)propanthioamide]	100%	
C#CCOc1ccc(CCC(=O)NCc2ccc(Cl)cc2)cc1OCC [(I-12), N-(4-chlorobenzyl)-3-{3-ethoxy-4-(2-propionyloxy)phenyl}pro panamide]		100%
C#CCOc1ccc(CCC(=O)NCc2ccc(CC)cc2)cc1OC [(I-8), N-(4-ethylbenzyl)-3-{3-methoxy-4-(2-propynyloxy)phenyl}prop anamide]	100%	
C#CCOc1ccc(CCC(=S)NCc2ccc3c(c2)CCCC3)cc1OC [(I-26), N-(5,6,7,8-tetrahydronaphthalene-2-ylmethyl)-3-(3-methoxy-4-(2-propynyloxy)phenyl}propanthioamide]	100%	
COc1ccc(C(=CC(=O)N2CCOCC2)c2ccc(Cl)cc2)cc1OC [dimethomorph, 4-[3-(4-chlorophenyl)-3-(3,4-dimethoxyphenyl)acryloyl]morph oline, reference compound]	100%	
C#CCOc1ccc(CCC(=O)NCc2ccc(Cl)cc2)cc1OC [(I-10), N-(4-chlorobenzyl)-3-(3-methoxy-4-(2-propynyloxy)phenyl}pro panamide]	100%	
C#CCOc1ccc(CCC(=O)NCc2ccc(C)cc2)cc1OC [(I-1), N-(4-methylbenzyl)-3-{3-methoxy-4-(2-propynyloxy)phenyl}pro panamide]	100%	
C#CCOc1ccc(CCC(=O)NCc2ccc(C)c(C)c2)cc1OC [(I-2)]		100%
CCOc1ccc(CCC(=O)NC(C#N)c2ccc(Cl)cc2)cc1OC (stereo not drawn) [(I-17), N-{1-(4-chlorophenyl)-1-cyanomethyl)-3-(3-methoxy-4-ethoxyphenyl)propanamide]	100%	
C#CCOc1ccc(CCC(=S)NCc2ccc(Cl)cc2)cc1OCC [(I-15), N-(4-chlorobenzyl)-3-(3-ethoxy-4-(2-propynyloxy)phenyl)prop anthioamide]	100%	
C#CCOc1ccc(CCC(=O)NC(C#N)c2ccc(Br)cc2)cc1OC (stereo not drawn) [(I-20), N-{1-(4-bromophenyl)-1-cyanomethyl}-3-(3-methoxy-4-(2-propynyloxy)phenyl}propanamide]	100%	
